Test results taken from patent US20260028365A1 (BIOGEN MA INC., priority 2022, published 2026).

How the values were obtained:
JAK2 = JAK2 (Homo sapiens (Human), UniProt O60674); test: pSTAT5 Cell Assay (MSD, TF1 cells); type: cell-based; settings: IL-3 stimulation, MSD
Summary of the method: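 Serum-starved TF1 cells were pretreated with compound for 1 h (10-point four-fold series from 10 μM), then stimulated with 30 ng/mL IL-3 for 15 min. pSTAT5 in lysates was measured by MSD immunoassay. IC50 came from a 4-parameter logistic fit.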

JH2 domain of human Tyk2 = JH2 domain of human Tyk2 (Homo sapiens (Human), UniProt P29597); test: JH2 Biochemical Assay (TR-FRET probe displacement); type: binding; settings: TR-FRET probe displacement, JH2 domain of human Tyk2
Chain of JH2 domain of human Tyk2 (P29597 575-876): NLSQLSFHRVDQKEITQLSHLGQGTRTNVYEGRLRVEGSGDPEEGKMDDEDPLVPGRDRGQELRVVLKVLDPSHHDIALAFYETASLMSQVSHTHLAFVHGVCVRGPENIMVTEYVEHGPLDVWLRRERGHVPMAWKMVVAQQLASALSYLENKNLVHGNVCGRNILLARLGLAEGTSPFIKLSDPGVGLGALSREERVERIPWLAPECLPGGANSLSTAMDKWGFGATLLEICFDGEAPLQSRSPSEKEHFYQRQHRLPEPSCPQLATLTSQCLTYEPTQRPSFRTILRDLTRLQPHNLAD

JAK1 = JAK1 (Homo sapiens (Human), UniProt P23458); test: pSTAT3 Cell Assay (MSD, TF1 cells); type: cell-based; settings: IL-6 stimulation, MSD
Chain of JAK1 (P23458 whole entry): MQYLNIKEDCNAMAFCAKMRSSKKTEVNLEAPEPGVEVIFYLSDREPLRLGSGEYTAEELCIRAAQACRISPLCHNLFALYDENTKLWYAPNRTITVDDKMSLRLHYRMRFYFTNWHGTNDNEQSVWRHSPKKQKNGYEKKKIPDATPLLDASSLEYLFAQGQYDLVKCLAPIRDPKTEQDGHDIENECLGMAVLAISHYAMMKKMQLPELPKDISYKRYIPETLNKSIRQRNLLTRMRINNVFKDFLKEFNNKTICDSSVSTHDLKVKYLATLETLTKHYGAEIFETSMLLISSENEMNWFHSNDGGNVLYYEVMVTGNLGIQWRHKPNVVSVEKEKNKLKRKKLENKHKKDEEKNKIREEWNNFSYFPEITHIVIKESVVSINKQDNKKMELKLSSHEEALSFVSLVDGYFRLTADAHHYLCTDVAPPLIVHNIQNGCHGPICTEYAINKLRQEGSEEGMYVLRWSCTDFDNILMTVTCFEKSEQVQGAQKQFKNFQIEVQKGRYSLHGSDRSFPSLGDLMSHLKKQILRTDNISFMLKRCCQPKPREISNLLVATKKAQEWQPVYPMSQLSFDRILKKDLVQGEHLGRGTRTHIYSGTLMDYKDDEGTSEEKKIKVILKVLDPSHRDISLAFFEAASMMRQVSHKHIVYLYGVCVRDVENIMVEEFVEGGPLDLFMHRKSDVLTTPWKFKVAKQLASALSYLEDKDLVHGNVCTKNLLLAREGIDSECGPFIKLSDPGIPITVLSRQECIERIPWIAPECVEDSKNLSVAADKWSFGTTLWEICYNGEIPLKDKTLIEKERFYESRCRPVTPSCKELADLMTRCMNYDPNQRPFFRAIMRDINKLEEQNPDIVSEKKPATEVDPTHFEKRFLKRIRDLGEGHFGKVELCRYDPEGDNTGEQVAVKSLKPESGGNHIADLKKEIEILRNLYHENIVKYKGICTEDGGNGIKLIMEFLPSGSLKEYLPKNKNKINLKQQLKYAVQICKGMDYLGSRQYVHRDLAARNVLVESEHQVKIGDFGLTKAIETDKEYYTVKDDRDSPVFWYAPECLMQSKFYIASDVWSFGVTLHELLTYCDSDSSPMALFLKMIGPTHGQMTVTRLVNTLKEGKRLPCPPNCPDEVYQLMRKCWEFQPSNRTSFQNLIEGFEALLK
Summary of the method: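 Serum-starved TF1 cells were pretreated with compound for 1 hour (10-point, four-fold dilutions from 10 μM), then stimulated with IL-6 for 15 minutes. Lysates were assayed for pSTAT3 by MSD with anti-STAT3 antibodies; IC50 came from a 4-parameter logistic fit of normalized percent activity.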

Tyk2 = Tyk2 (Homo sapiens (Human), UniProt P29597); test: pSTAT4 Cell Assay (MSD, NK92 cells); type: cell-based; settings: MSD
Chain of Tyk2 (P29597 whole entry): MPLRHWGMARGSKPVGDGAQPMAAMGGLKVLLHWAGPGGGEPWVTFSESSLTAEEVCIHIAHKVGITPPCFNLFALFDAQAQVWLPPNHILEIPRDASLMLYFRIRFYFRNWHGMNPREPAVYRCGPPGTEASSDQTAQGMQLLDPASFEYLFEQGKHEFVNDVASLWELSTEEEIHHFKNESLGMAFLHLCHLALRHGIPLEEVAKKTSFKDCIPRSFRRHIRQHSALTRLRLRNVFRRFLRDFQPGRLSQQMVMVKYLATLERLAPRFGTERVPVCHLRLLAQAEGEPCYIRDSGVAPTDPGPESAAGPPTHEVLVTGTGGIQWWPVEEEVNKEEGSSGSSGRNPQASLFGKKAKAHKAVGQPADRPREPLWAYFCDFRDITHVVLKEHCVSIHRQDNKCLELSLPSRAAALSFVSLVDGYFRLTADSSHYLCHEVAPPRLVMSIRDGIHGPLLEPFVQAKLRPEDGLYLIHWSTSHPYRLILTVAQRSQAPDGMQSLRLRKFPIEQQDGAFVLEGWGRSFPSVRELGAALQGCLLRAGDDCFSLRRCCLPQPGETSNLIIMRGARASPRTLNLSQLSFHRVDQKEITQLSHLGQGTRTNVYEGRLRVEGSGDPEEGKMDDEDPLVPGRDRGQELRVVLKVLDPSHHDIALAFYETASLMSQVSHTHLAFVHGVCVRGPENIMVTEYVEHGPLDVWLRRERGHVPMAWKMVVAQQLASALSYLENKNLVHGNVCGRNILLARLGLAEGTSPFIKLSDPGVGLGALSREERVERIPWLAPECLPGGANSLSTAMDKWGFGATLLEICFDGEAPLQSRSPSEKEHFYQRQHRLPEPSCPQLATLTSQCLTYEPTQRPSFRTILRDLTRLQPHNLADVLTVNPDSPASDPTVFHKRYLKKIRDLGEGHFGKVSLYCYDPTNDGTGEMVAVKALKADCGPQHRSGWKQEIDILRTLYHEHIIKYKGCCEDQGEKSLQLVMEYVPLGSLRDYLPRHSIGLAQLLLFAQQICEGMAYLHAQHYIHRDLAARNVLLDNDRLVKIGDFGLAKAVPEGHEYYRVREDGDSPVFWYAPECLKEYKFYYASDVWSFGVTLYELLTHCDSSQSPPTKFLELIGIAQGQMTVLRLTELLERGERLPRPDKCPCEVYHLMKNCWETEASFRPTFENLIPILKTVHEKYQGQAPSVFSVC

Chain of JAK2 (O60674 whole entry): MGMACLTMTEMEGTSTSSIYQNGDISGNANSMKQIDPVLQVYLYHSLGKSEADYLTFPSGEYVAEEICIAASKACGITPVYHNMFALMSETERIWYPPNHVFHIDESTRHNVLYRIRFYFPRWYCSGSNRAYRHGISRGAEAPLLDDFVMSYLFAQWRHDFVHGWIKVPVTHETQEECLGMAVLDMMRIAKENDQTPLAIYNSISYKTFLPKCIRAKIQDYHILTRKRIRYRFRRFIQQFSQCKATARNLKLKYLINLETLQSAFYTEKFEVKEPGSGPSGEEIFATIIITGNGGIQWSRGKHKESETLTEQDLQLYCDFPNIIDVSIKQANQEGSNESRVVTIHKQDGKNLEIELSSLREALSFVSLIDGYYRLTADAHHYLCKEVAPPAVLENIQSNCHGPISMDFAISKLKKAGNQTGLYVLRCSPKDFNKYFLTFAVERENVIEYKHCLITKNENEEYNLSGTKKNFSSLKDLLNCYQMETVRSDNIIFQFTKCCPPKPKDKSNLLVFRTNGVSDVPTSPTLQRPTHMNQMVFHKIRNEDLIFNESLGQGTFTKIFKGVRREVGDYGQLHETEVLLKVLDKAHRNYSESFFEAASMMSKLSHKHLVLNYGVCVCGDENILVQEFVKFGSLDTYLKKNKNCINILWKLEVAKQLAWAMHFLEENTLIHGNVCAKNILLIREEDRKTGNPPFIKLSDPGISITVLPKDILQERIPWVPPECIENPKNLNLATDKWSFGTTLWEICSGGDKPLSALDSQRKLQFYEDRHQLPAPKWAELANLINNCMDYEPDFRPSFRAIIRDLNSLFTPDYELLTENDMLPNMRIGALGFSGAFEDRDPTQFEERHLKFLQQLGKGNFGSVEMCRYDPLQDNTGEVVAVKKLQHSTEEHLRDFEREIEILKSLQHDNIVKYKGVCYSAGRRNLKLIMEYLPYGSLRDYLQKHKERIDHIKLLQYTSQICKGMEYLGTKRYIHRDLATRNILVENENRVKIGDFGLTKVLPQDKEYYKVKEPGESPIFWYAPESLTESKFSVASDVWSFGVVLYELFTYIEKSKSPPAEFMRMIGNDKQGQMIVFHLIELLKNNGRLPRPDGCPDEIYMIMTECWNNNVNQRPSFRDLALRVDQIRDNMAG

Compound	IC50 (JAK2) [nM]	IC50 (JH2 domain of human Tyk2) [nM]	IC50 (JAK1) [nM]	IC50 (Tyk2) [nM]
CC(=O)Nc1cc(Nc2ccnc(C(C)(F)F)n2)c(-c2ccc(C#N)cn2)cn1 [Example 146, N-(5-cyano-4′-((2-(1,1-difluoroethyl)pyrimidin-4-yl)amino)-[2,3′-bipyridin]-6′-yl)acetamide]	≥ 1000	≤ 10	≥ 1000	≤ 10
CC(=O)Nc1cc(Nc2ccnc(C(C)(C)F)n2)c(-c2ccnc(C)n2)cn1 [Example 175, N-(4-((2-(2-fluoropropan-2-yl)pyrimidin-4-yl)amino)-5-(2-methylpyrimidin-4-yl)pyridin-2-yl)acetamide]	≥ 1000	≤ 10	≥ 1000	≤ 10
CC(=O)Nc1cc(Nc2cc(C)nc(C(C)(F)F)n2)c(-c2ncc(F)cn2)cn1 [Example 182, N-(4-((2-(1,1-difluoroethyl)-6-methylpyrimidin-4-yl)amino)-5-(5-fluoropyrimidin-2-yl)pyridin-2-yl)acetamide]	≥ 1000	≤ 10	≥ 1000	10 to 100
CC(=O)Nc1cc(Nc2ccnc(C(C)(F)F)n2)c(-c2ncc(F)cn2)cn1 [Example 185, N-(4-((2-(1,1-difluoroethyl)pyrimidin-4-yl)amino)-5-(5-fluoropyrimidin-2-yl)pyridin-2-yl)acetamide]	≥ 1000	≤ 10	≥ 1000	10 to 100
COc1cc(-c2cnc(NC(C)=O)cc2Nc2ccnc(C(C)(C)F)n2)ncn1 [Example 195, N-(4-((2-(2-fluoropropan-2-yl)pyrimidin-4-yl)amino)-5-(6-methoxypyrimidin-4-yl)pyridin-2-yl)acetamide]	≥ 1000	≤ 10	≥ 1000	10 to 100
CC(=O)Nc1cc(Nc2cc(C)nc(C(C)(C)F)n2)c(-c2cc(C)ncn2)cn1 [Example 200, N-(4-((2-(2-fluoropropan-2-yl)-6-methylpyrimidin-4-yl)amino)-5-(6-methylpyrimidin-4-yl)pyridin-2-yl)acetamide]	≥ 1000	≤ 10	≥ 1000	10 to 100
CC(=O)Nc1cc(Nc2ccnc(C(C)(F)F)n2)c(-c2cc(C)ncn2)cn1 [Example 201, N-(4-((2-(1,1-difluoroethyl)pyrimidin-4-yl)amino)-5-(6-methylpyrimidin-4-yl)pyridin-2-yl)acetamide]	≥ 1000	≤ 10	≥ 1000	10 to 100
CC(=O)Nc1cc(Nc2cncc(C(C)(F)F)n2)c(-c2ccn(C)n2)cn1 [Example 212, N-(4-((6-(1,1-difluoroethyl)pyrazin-2-yl)amino)-5-(1-methyl-1H-pyrazol-3-yl)pyridin-2-yl)acetamide]	100 to 1000	≤ 10	≥ 1000	≤ 10
CC(=O)Nc1cc(Nc2cc(C)nc(C(C)(F)F)n2)c(-c2ccn(C)n2)cn1 [Example 218, N-(4-((2-(1,1-difluoroethyl)-6-methylpyrimidin-4-yl)amino)-5-(1-methyl-1H-pyrazol-3-yl)pyridin-2-yl)acetamide]	≥ 1000	≤ 10	≥ 1000	≤ 10
CC(=O)Nc1cc(Nc2cc(C)nc(C(C)(F)F)n2)c(-c2cc3n(n2)CCN(C)C3)cn1 [Example 226, N-(4-((2-(1,1-difluoroethyl)-6-methylpyrimidin-4-yl)amino)-5-(5-methyl-4,5,6,7-tetrahydropyrazolo[1,5-a]pyrazin-2-yl)pyridin-2-yl)acetamide]	≥ 1000	≤ 10	100 to 1000	≤ 10
CC(=O)Nc1cc(Nc2cc(C)nc(C(C)(F)F)n2)c(-c2cnn(C)n2)cn1 [Example 227, N-(4-((2-(1,1-difluoroethyl)-6-methylpyrimidin-4-yl)amino)-5-(2-methyl-2H-1,2,3-triazol-4-yl)pyridin-2-yl)acetamide]	≥ 1000	≤ 10	≥ 1000	≤ 10
CC(=O)Nc1cc(Nc2cc(C)nc(C(C)(F)F)n2)c(-c2nc3c(s2)CCN(C)C3)cn1 [Example 237, N-(4-((2-(1,1-difluoroethyl)-6-methylpyrimidin-4-yl)amino)-5-(5-methyl-4,5,6,7-tetrahydrothiazolo[4,5-c]pyridin-2-yl)pyridin-2-yl)acetamide]	≥ 1000	≤ 10	≥ 1000	≤ 10
CC(=O)Nc1cc(Nc2cc(C)nc(C(C)(F)F)n2)c(-c2nc3c(s2)CN(C)CC3)cn1 [Example 238, N-(4-((2-(1,1-difluoroethyl)-6-methylpyrimidin-4-yl)amino)-5-(5-methyl-4,5,6,7-tetrahydrothiazolo[5,4-c]pyridin-2-yl)pyridin-2-yl)acetamide]	≥ 1000	≤ 10	≥ 1000	≤ 10
CC(=O)Nc1cc(Nc2cc(C)nc(C(C)(F)F)n2)c(-c2cc(C(F)F)ncn2)cn1 [Example 246, N-(4-((2-(1,1-difluoroethyl)-6-methylpyrimidin-4-yl)amino)-5-(6-(difluoromethyl)pyrimidin-4-yl)pyridin-2-yl)acetamide]	≥ 1000	≤ 10	≥ 1000	10 to 100
COCCn1ncc(-c2cnc(NC(C)=O)cc2Nc2cc(C)nc(C(C)(F)F)n2)n1 [Example 260, N-(4-((2-(1,1-difluoroethyl)-6-methylpyrimidin-4-yl)amino)-5-(2-(2-methoxyethyl)-2H-1,2,3-triazol-4-yl)pyridin-2-yl)acetamide]	≥ 1000	≤ 10	≥ 1000	≤ 10
CCc1cc(Nc2cc(NC(C)=O)ncc2-c2ccc(CN3CCOCC3)cn2)nc(C(C)(F)F)n1 [Example 268, N-(4′-((2-(1,1-difluoroethyl)-6-ethylpyrimidin-4-yl)amino)-5-(morpholinomethyl)-[2,3′-bipyridin]-6′-yl)acetamide]	≥ 1000	≤ 10	≥ 1000	≤ 10
CC(=O)Nc1cc(Nc2cc(C)nc(C(C)(F)F)n2)c(-c2ccncn2)cn1 [Example 270, N-(4-((2-(1,1-difluoroethyl)-6-methylpyrimidin-4-yl)amino)-5-(pyrimidin-4-yl)pyridin-2-yl)acetamide]	≥ 1000	≤ 10	≥ 1000	≤ 10
CC(=O)Nc1cc(Nc2ccnc(C(C)(F)F)n2)c(-c2ccc(N(C)C)cn2)cn1 [Example 276, N-(4′-((2-(1,1-difluoroethyl)pyrimidin-4-yl)amino)-5-(dimethylamino)-[2,3′-bipyridin]-6′-yl)acetamide]	≥ 1000	≤ 10	≥ 1000	≤ 10
CNC(=O)Nc1cc(Nc2cc(C)nc(C(C)(F)F)n2)c(-c2ccn(C)n2)cn1 [Example 289, 1-(4-((2-(1,1-difluoroethyl)-6-methylpyrimidin-4-yl)amino)-5-(1-methyl-1H-pyrazol-3-yl)pyridin-2-yl)-3-methylurea]	≥ 1000	≤ 10	≥ 1000	≤ 10
COCCOc1cnc(NC(C)=O)cc1Nc1cc(OC2CC2)nc(C(C)(F)F)n1 [Example 298, N-(4-((6-cyclopropoxy-2-(1,1-difluoroethyl)pyrimidin-4-yl)amino)-5-(2-methoxyethoxy)pyridin-2-yl)acetamide]	≥ 1000	≤ 10	≥ 1000	≤ 10
COCCOc1cnc(NC(C)=O)cc1Nc1cc(C(C)C)nc(C(C)(F)F)n1 [Example 300, N-(4-((2-(1,1-difluoroethyl)-6-isopropylpyrimidin-4-yl)amino)-5-(2-methoxyethoxy)pyridin-2-yl)acetamide]	≥ 1000	≤ 10	≥ 1000	≤ 10
CCOc1cnc(NC(C)=O)cc1Nc1cc(-c2cnn(C)c2)nc(C(C)(F)F)n1 [Example 302, N-(4-((2-(1,1-difluoroethyl)-6-(1-methyl-1H-pyrazol-4-yl)pyrimidin-4-yl)amino)-5-ethoxypyridin-2-yl)acetamide]	≥ 1000	≤ 10	≥ 1000	10 to 100
CCOc1cnc(NC(C)=O)cc1Nc1cc(-c2cnn(C3CC3)c2)nc(C(C)(F)F)n1 [Example 304, N-(4-((6-(1-cyclopropyl-1H-pyrazol-4-yl)-2-(1,1-difluoroethyl)pyrimidin-4-yl)amino)-5-ethoxypyridin-2-yl)acetamide]	≥ 1000	≤ 10	≥ 1000	≤ 10
CCOc1cnc(NC(C)=O)cc1Nc1cc(-c2cnn(C(C)C)c2)nc(C(C)(F)F)n1 [Example 306, N-(4-((2-(1,1-difluoroethyl)-6-(1-isopropyl-1H-pyrazol-4-yl)pyrimidin-4-yl)amino)-5-ethoxypyridin-2-yl)acetamide]	≥ 1000	≤ 10	≥ 1000	≤ 10
CCOc1cnc(NC(C)=O)cc1Nc1cc(-c2cnn(CC)c2)nc(C(C)(F)F)n1 [Example 311, N-(4-((2-(1,1-difluoroethyl)-6-(1-ethyl-1H-pyrazol-4-yl)pyrimidin-4-yl)amino)-5-ethoxypyridin-2-yl)acetamide]	≥ 1000	≤ 10	≥ 1000	10 to 100
